According to patent publication US7078428B2, “Isoindolone derivatives, preparation process and intermediates of this process, their use as medicaments, and pharmaceutical compositions comprising them” (Sanofi-Aventis Deutschland GmbH, priority 2002, dated 2006):
Where “and” joins values, the source holds several entries; their conditions need not be identical. Equal values may be shown once. Where a name gives a salt, the structure may show the parent alone.

Biological target: T1, NHE1 (Homo sapiens, UniProt P19634)
T1 construct: expressed in transfected cells
T1 sequence (P19634 whole entry, species assumed): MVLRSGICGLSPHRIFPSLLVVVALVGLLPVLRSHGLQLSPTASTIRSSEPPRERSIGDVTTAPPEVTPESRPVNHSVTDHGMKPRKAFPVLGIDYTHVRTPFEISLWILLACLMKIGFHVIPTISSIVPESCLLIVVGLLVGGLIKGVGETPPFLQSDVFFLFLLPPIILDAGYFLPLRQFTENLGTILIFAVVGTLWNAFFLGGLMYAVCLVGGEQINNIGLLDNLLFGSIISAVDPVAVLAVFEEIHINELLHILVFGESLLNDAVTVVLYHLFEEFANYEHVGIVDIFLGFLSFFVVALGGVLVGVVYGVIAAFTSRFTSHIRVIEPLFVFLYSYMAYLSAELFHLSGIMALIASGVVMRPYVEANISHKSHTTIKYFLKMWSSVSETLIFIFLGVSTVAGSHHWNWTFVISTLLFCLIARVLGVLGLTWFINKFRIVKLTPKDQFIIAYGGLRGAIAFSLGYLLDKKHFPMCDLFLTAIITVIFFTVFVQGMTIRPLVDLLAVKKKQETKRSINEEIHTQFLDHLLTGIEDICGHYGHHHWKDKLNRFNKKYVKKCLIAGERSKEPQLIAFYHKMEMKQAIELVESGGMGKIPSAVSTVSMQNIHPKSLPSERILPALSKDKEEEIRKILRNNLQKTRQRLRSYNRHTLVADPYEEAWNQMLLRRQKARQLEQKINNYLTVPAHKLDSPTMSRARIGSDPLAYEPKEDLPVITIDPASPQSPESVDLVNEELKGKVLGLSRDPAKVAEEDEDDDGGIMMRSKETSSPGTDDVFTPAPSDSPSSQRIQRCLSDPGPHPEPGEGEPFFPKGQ
Test: NHE inhibition FLIPR test (intracellular pH recovery, BCECF) in transfected LAP-1 cells
Format: cell-based
Settings: transfected cell line (parental LAP-1) expressing the NHE-1 subtype, pHi recovery after acidification
Protocol: The NHE inhibitory activities (IC50 values) of the compounds according to the invention were determined by a FLIPR test.
The test is performed in the FLIPR (Fluorescent Imaging Plate Reader) equipped with clear-bottomed and black-walled 96-well microtitration plates.
The growth medium for the transfected cells (Iscove +10% foetal calf serum) also comprises G418 as selection antibiotic to ensure the presence of transfected sequences.
The actual test begins by eliminating the growth medium and adding 100 μl of loading buffer per well (5 μM of BCECF-AM [2′,7′-bis(2-carboxyethyl)-5-(6)-carboxyfluoresceine acetoxymethyl ester] in 20 mM of NH4Cl, 115 mM of choline chloride, 1 mM of CaCl2, 5 mM of KCl, 20 mM of HEPES and 5 mM of glucose; pH 7.4 (adjusted with KOH). The cells are then incubated for 20 minutes at 37° C. This incubation results in the loading of the fluorescent dye into the cells, the fluorescence intensity of which depends on the pHi, and on the NH4Cl, which results in a slight basification of the cells.
The precursor BCECF-AM, a non-fluorescent dye, is, as an ester, capable of crossing the membrane. The actual dye, which is incapable of crossing the membrane, is released inside the cell by esterases.
After this 20-minute incubation, the loading buffer, which comprises NH4Cl and free BCECF-AM, is removed by washing three times in the cell washing device (Tecan Columbus), each wash being performed with 400 μl of washing buffer (133.8 mM of choline chloride, 4.7 mM of KCl, 1.25 mM of MgCl2, 1.25 mM of CaCl2, 0.97 mM of K2HPO4, 0.23 mM of KH2PO4, 5 mM of HEPES and 5 mM of glucose; pH 7.4 (adjusted with KOH)). The residual volume remaining in the wells is 90 μl (possibly between 50 and 125 μl). This washing step removes the free BCECF-AM and results in an intracellular acidification (pHi of 6.3-6.4) due to the removal of the external ammonium ions.
As the equilibrium of the intracellular ammonium with the aqueous ammonia and the protons, by removal of the extracellular ammonium and by the subsequent immediate crossing of the aqueous ammonia across the cell membrane, is disrupted, the washing process results in intracellular protons remaining, which is the cause of the intracellular acidification. This acidification can result finally in the death of the cells if it lasts long enough. It is important here for the washing buffer to be free of sodium (<1 mM), otherwise the extracellular sodium ions would result in an immediate increase in the pHi on account of the activity of the cloned NHE isoforms. It is also important for all the buffers used (loading buffer, washing buffer and regeneration buffer) not to contain any HCO3-ions, otherwise the presence of bicarbonate would result in the activation of bicarbonate-dependent systems that disrupt the pHi regulation, which systems are contained in the LAP-1 parental cell line.
The microtiter plates containing acidified cells are then transferred (up to 20 minutes after the acidification) to the FLIPR. In the FLIPR, the intracellular fluorescent dye is activated with light of a wavelength of 488 nm, which is generated by an argon laser, and the measuring parameters (laser power, illumination time and diaphragm of the […] camera integrated into the FLIPR) are chosen such that the average value of the fluorescent signal per well is between 30,000 and 35,000 relative fluorescence units.
The actual measurement in the FLIPR starts with a photograph being taken by the CCD camera every two seconds under software control. After 10 seconds, the increase in the intracellular pH is initiated by adding 90 μl of regeneration buffer (133.8 mM of NaCl, 4.7 mM of KCl, 1.25 mM of MgCl2, 1.25 mM of CaCl2, 0.97 mM of K2HPO4, 0.23 mM of KH2PO4, 10 mM of HEPES and 5 mM of glucose; pH 7.4 (adjusted with NaOH)) using a 96-well pipette device incorporated into the FLIPR. Some wells, to which is added pure regeneration buffer, serve as positive controls (100% NHE activity). […]

SMILES	IC50
N=C(N)NC(=O)CC1c2cc(F)c(F)cc2C(=O)N1CCC(F)(F)F (racemic) [Example 40, (R)-N-{2-[5,6-Difluoro-3-oxo-2-(3,3,3-trifluoro-propyl)-2,3-dihydro-1H-isoindol-1-yl]-acetyl}-guanidine and (S)-N-{2-[5,6-Difluoro-3-oxo-2-(3,3,3-trifluoro-propyl)-2,3-dihydro-1H-isoindol-1-yl]-acetyl}-guanidine]	29 nM
[H]/N=C(\N)NC(=O)CC1c2cc(Cl)c(Cl)cc2C(=O)N1CC1CC1 (racemic) [Example 42, (R)-N-[2-(5,6-Dichloro-2-cyclopropylmethyl-3-oxo-2,3-dihydro-1H-isoindol-1-yl)-acetyl]-guanidine and (S)-N-[2-(5,6-Dichloro-2-cyclopropylmethyl-3-oxo-2,3-dihydro-1H-isoindol-1-yl)-acetyl]-guanidine]	18 nM
NC(N)=NC(=O)CC1c2cc(Cl)c(Cl)cc2C(=O)N1C1CC1 (racemic) [Example 43, (R)-N-[2-(5,6-Dichloro-2-cyclopropyl-3-oxo-2,3-dihydro-1H-isoindol-1-yl)-acetyl]-guanidine and (S)-N-[2-(5,6-Dichloro-2-cyclopropyl-3-oxo-2,3-dihydro-1H-isoindol-1-yl)-acetyl]-guanidine]	30 nM
CC(C(=O)NC(=N)N)C1c2ccccc2C(=O)N1CCO (single isomer, unassigned) [Example 33]	3600 nM and 4700 nM
[H]/N=C(\N)NC(=O)CC1c2cc(S(C)(=O)=O)ccc2C(=O)N1CC(F)(F)F (single isomer, unassigned) [Example 36a]	524 nM
[H]/N=C(\N)NC(=O)CC1c2cc(S(C)(=O)=O)ccc2C(=O)N1CC(F)(F)F (single isomer, unassigned) [Example 36b]	6 nM
NC(N)=NC(=O)CC1c2cc(C(F)(F)F)ccc2C(=O)N1CC1CC1 (single isomer, unassigned) [Example 38a]	249 nM
NC(N)=NC(=O)CC1c2cc(C(F)(F)F)ccc2C(=O)N1CC1CC1 (single isomer, unassigned) [Example 38b]	5 nM
N=C(N)NC(=O)CC1c2cc(F)c(F)cc2C(=O)N1CCC(F)(F)F (single isomer, unassigned) [Example 40a]	263 nM
N=C(N)NC(=O)CC1c2cc(F)c(F)cc2C(=O)N1CCC(F)(F)F (single isomer, unassigned) [Example 40b]	63 nM
[H]/N=C(\N)NC(=O)CC1c2cc(Cl)c(Cl)cc2C(=O)N1CCC(F)(F)F (single isomer, unassigned) [Example 41b]	41 nM
[H]/N=C(\N)NC(=O)CC1c2cc(Cl)c(Cl)cc2C(=O)N1CCC(F)(F)F (single isomer, unassigned) [Example 41c]	19 nM
[H]/N=C(\N)NC(=O)CC1c2cc(Cl)c(Cl)cc2C(=O)N1CC1CC1 (single isomer, unassigned) [Example 42a]	66 nM
[H]/N=C(\N)NC(=O)CC1c2cc(Cl)c(Cl)cc2C(=O)N1CC1CC1 (single isomer, unassigned) [Example 42b]	3 nM
NC(N)=NC(=O)CC1c2cc(Cl)c(Cl)cc2C(=O)N1C1CC1 (single isomer, unassigned) [Example 43a]	53 nM
NC(N)=NC(=O)CC1c2cc(Cl)c(Cl)cc2C(=O)N1C1CC1 (single isomer, unassigned) [Example 43b]	442 nM
NC(N)=NC(=O)CC1c2cc(Cl)c(Cl)cc2C(=O)N1CC(F)(F)F (single isomer, unassigned) [Example 44b]	13 nM
NC(N)=NC(=O)CC1c2cc(Cl)c(Cl)cc2C(=O)N1CC(F)(F)F (single isomer, unassigned) [Example 44c]	260 nM
NC(N)=NC(=O)CC1c2cc(C(F)(F)F)ccc2C(=O)N1CC(F)(F)F (single isomer, unassigned) [Example 46a]	19 nM
NC(N)=NC(=O)CC1c2cc(C(F)(F)F)ccc2C(=O)N1CC(F)(F)F (single isomer, unassigned) [Example 46b]	0.2 nM

SMILES	IC50
NC(N)=NC(=O)CC1c2ccc(C(F)(F)F)cc2C(=O)N1CC(F)(F)F (single isomer, unassigned) [Example 47a]	70 nM
NC(N)=NC(=O)CC1c2ccc(C(F)(F)F)cc2C(=O)N1CC(F)(F)F (single isomer, unassigned) [Example 47b]	5790 nM
NC(N)=NC(=O)CC1c2cc(C(F)(F)F)ccc2C(=O)N1CC(F)(F)F (single isomer, unassigned) [Example 48, N-{2-[3-Oxo-2-(2,2,2-trifluoro-ethyl)-6-trifluoromethyl-2,3-dihydro-1H-isoindol-1-yl]-acetyl}-guanidine hydrogen fumarate]	0.2 nM
NC(N)=NC(=O)CC1c2cc(Cl)ccc2C(=O)N1CCC(F)(F)F (single isomer, unassigned) [Example 49a]	1 nM
NC(N)=NC(=O)CC1c2cc(Cl)ccc2C(=O)N1CCC(F)(F)F (single isomer, unassigned) [Example 49b]	13 nM
NC(N)=NC(=O)CC1c2ccc(Cl)cc2C(=O)N1CCC(F)(F)F (single isomer, unassigned) [Example 50a]	9 nM
NC(N)=NC(=O)CC1c2ccc(Cl)cc2C(=O)N1CCC(F)(F)F (single isomer, unassigned) [Example 50b]	6 nM
NC(N)=NC(=O)CC1c2cc(C(F)(F)F)ccc2C(=O)N1CCC(F)(F)F (single isomer, unassigned) [Example 51a]	6 nM
NC(N)=NC(=O)CC1c2cc(C(F)(F)F)ccc2C(=O)N1CCC(F)(F)F (single isomer, unassigned) [Example 51b]	171 nM
NC(N)=NC(=O)CC1c2ccc(C(F)(F)F)cc2C(=O)N1CCC(F)(F)F (single isomer, unassigned) [Example 52a]	50 nM
NC(N)=NC(=O)CC1c2ccc(C(F)(F)F)cc2C(=O)N1CCC(F)(F)F (single isomer, unassigned) [Example 52b]	671 nM
NC(N)=NC(=O)CC1c2cc(Cl)ccc2C(=O)N1CCCC(F)(F)F (single isomer, unassigned) [Example 53a]	83 nM
NC(N)=NC(=O)CC1c2cc(Cl)ccc2C(=O)N1CCCC(F)(F)F (single isomer, unassigned) [Example 53b]	16 nM
NC(N)=NC(=O)CC1c2ccc(Cl)cc2C(=O)N1CCCC(F)(F)F (single isomer, unassigned) [Example 54a]	944 nM
NC(N)=NC(=O)CC1c2ccc(Cl)cc2C(=O)N1CCCC(F)(F)F (single isomer, unassigned) [Example 54b]	48 nM
NC(N)=NC(=O)CC1c2cc(Cl)ccc2C(=O)N1CC1CC1 (single isomer, unassigned) [Example 55a]	2 nM
NC(N)=NC(=O)CC1c2cc(Cl)ccc2C(=O)N1CC1CC1 (single isomer, unassigned) [Example 55b]	20 nM
NC(N)=NC(=O)CC1c2ccc(Cl)cc2C(=O)N1CC1CC1 (single isomer, unassigned) [Example 56a]	28 nM
NC(N)=NC(=O)CC1c2ccc(Cl)cc2C(=O)N1CC1CC1 (single isomer, unassigned) [Example 56b]	18 nM
CC(C)CN1C(=O)c2ccccc2C1CC(=O)N=C(N)N (single isomer, unassigned; (+)) [Example 4, (+)-N-[2-(2-Isobutyl-3-oxo-2,3-dihydro-1H-isoindol-1-yl)acetyl]guanidine]	57 nM
